Data published in PubChem BioAssay (NCI).
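Method: 48-hour compound exposure of cells in 96-well plates, five concentrations, linear interpolation of endpoints. TGI: concentration producing complete growth inhibition.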

What was measured:
Test in all cases: NCI tumour cell line growth inhibition, 48 h
[1] = test system: 786-0 renal
[2] = test system: OVCAR-3 ovarian
[3] = test system: SNB-19 CNS
[4] = test system: EKVX NSCLC
[5] = test system: MCF7 breast
[6] = test system: SF-295 CNS
[7] = test system: SK-OV-3 ovarian
[8] = test system: KM12 colon
[9] = test system: COLO 205 colon
[10] = test system: NCI-H226 lung
[11] = test system: SNB-75 CNS
[12] = test system: SK-MEL-28 melanoma
[13] = test system: HT29 colon
[14] = test system: SF-268 CNS
[15] = test system: A549 NSCLC
[16] = test system: HCT-116 colon
[17] = test system: HCT-15 colon
[18] = test system: RXF 393 renal
[19] = test system: SK-MEL-2 melanoma
[20] = test system: HOP-62 NSCLC
[21] = test system: ACHN renal
[22] = test system: SF-539 CNS
[23] = test system: HOP-92 NSCLC
[24] = test system: UACC-257 melanoma
[25] = test system: TK-10 renal
[26] = test system: CCRF-CEM leukemia
[27] = test system: M14 melanoma
[28] = test system: NCI-H23 lung
[29] = test system: BT-549 breast
[30] = test system: UO-31 renal
[31] = test system: UACC-62 melanoma
[32] = test system: MOLT-4 leukemia
[33] = test system: NCI/ADR-RES ovarian
[34] = test system: HS 578T breast
[35] = test system: MDA-N
[36] = test system: PC-3 prostate
[37] = test system: A498 renal
[38] = test system: NCI-H522 lung
[39] = test system: HL-60(TB) leukemia
[40] = test system: K-562 leukemia
[41] = test system: NCI-H460 lung
[42] = test system: SK-MEL-5 melanoma
[43] = test system: T-47D breast
[44] = test system: CAKI-1 renal
[45] = test system: U251 CNS
[46] = test system: LOX IMVI melanoma
[47] = test system: DU-145 prostate
[48] = test system: MALME-3M melanoma
[49] = test system: SR leukemia
[50] = test system: OVCAR-8 ovarian
[51] = test system: MDA-MB-435
[52] = test system: SW-620 colon
[53] = test system: MDA-MB-231 breast
[54] = test system: SN12C renal
[55] = test system: IGROV1 ovarian
[56] = test system: OVCAR-5 ovarian
[57] = test system: OVCAR-4 ovarian
[58] = test system: RPMI-8226 leukemia
[59] = test system: HCC-2998 colon
[60] = test system: LXFL 529 NSCLC
[61] = test system: DMS 273 small cell lung
[62] = test system: DLD-1 colon
[63] = test system: DMS 114 small cell lung
[64] = test system: KM20L2 colon
[65] = test system: SNB-78 CNS

## CO[C@H]1C[C@H](O[C@H]2CC[C@]3(C=O)[C@H]4CC[C@]5(C)[C@@H](C6=CC(=O)OC6)CC[C@]5(O)[C@@H]4CC[C@]3(O)C2)O[C@H](C)[C@H]1O[C@@H]1O[C@H](CO[C@@H]2O[C@H](CO)[C@@H](O)[C@H](O)[C@H]2O)[C@@H](O)[C@H](O)[C@H]1O
[1]
  TGI: 0.0781 µM
[2]
  TGI: 0.0809 µM
[3]
  TGI: 0.83 µM
[4]
  TGI: 0.0631 µM
[5]
  TGI: 0.677 µM
[6]
  TGI: 0.161 µM
[7]
  TGI: 0.21 µM
[8]
  TGI: 0.515 µM
[9]
  TGI: 0.348 µM
[10]
  TGI: 0.32 µM
[11]
  TGI: 0.437 µM
[12]
  TGI: 1.15 µM
[13]
  TGI: 0.188 µM
[14]
  TGI: 0.164 µM
[15]
  TGI: 0.0254 µM
[16]
  TGI: 0.0911 µM
[17]
  TGI: 0.144 µM
[18]
  TGI: 0.0802 µM
[19]
  TGI: 0.907 µM
[20]
  TGI: 0.0388 µM
[21]
  TGI: 0.135 µM
[22]
  TGI: 0.12 µM
[23]
  TGI: 0.367 µM
[24]
  TGI: 1.27 µM
[25]
  TGI: 0.133 µM
[26]
  TGI: > 100 µM
[27]
  TGI: 0.312 µM
[28]
  TGI: 0.0531 µM
[29]
  TGI: 0.164 µM
[30]
  TGI: 0.144 µM
[31]
  TGI: 0.467 µM
[32]
  TGI: 1.07 µM
[33]
  TGI: 0.15 µM
[34]
  TGI: 0.518 µM
[35]
  TGI: 0.286 µM
[36]
  TGI: 0.33 µM
[37]
  TGI: 0.533 µM
[38]
  TGI: 0.0638 µM
[39]
  TGI: 0.2 µM
[40]
  TGI: > 100 µM
[41]
  TGI: 0.0425 µM
[42]
  TGI: 0.124 µM
[43]
  TGI: 0.385 µM
[44]
  TGI: 0.0456 µM
[45]
  TGI: 0.202 µM
[46]
  TGI: 0.137 µM
[47]
  TGI: 0.0413 µM
[48]
  TGI: 0.243 µM
[49]
  TGI: 0.419 µM
[50]
  TGI: 0.167 µM
[51]
  TGI: 0.281 µM
[52]
  TGI: 0.179 µM
[53]
  TGI: 2.1 µM
[54]
  TGI: 0.11 µM
[55]
  TGI: 0.825 µM
[56]
  TGI: 0.199 µM
[57]
  TGI: 0.144 µM

## N=C(N)c1ccc(-c2ccc(-c3ccc(C(=N)N)cc3)o2)cc1
[1]
  TGI: 59.7 µM
[2]
  TGI: > 100 µM
[3]
  TGI: > 100 µM
[4]
  TGI: 91.6 µM
[5]
  TGI: > 100 µM
[6]
  TGI: > 100 µM
[7]
  TGI: > 100 µM
[8]
  TGI: > 100 µM
[9]
  TGI: 43.2 µM
[10]
  TGI: > 100 µM
[11]
  TGI: > 100 µM
[12]
  TGI: 71.7 µM
[13]
  TGI: > 100 µM
[14]
  TGI: > 100 µM
[15]
  TGI: > 100 µM
[16]
  TGI: > 100 µM
[17]
  TGI: > 100 µM
[18]
  TGI: > 100 µM
[19]
  TGI: 59.2 µM
[20]
  TGI: > 100 µM
[21]
  TGI: > 100 µM
[22]
  TGI: > 100 µM
[23]
  TGI: > 100 µM
[24]
  TGI: 87.2 µM
[25]
  TGI: 63 µM
[26]
  TGI: > 100 µM
[27]
  TGI: > 100 µM
[28]
  TGI: 87 µM
[29]
  TGI: > 100 µM
[30]
  TGI: 68.1 µM
[31]
  TGI: > 100 µM
[32]
  TGI: 77.5 µM
[33]
  TGI: > 100 µM
[34]
  TGI: 56.9 µM
[35]
  TGI: > 100 µM
[36]
  TGI: > 100 µM
[58]
  TGI: > 100 µM
[37]
  TGI: > 100 µM
[38]
  TGI: > 100 µM
[39]
  TGI: > 100 µM
[40]
  TGI: > 100 µM
[41]
  TGI: 40 µM
[42]
  TGI: 33 µM
[43]
  TGI: 74.9 µM
[44]
  TGI: > 100 µM
[45]
  TGI: 34.7 µM
[47]
  TGI: > 100 µM
[48]
  TGI: > 100 µM
[49]
  TGI: > 100 µM
[50]
  TGI: > 100 µM
[51]
  TGI: > 100 µM
[52]
  TGI: > 100 µM
[53]
  TGI: > 100 µM
[54]
  TGI: 57.3 µM
[55]
  TGI: > 100 µM
[56]
  TGI: 99.2 µM
[57]
  TGI: > 100 µM

## O=C(O)C#Cc1ccc([N+](=O)[O-])cc1
[59]
  TGI: > 100 µM
[1]
  TGI: > 100 µM
[2]
  TGI: > 100 µM
[3]
  TGI: > 100 µM
[4]
  TGI: > 100 µM
[5]
  TGI: > 100 µM
[6]
  TGI: > 100 µM
[7]
  TGI: > 100 µM
[8]
  TGI: > 100 µM
[9]
  TGI: > 100 µM
[10]
  TGI: > 100 µM
[12]
  TGI: > 100 µM
[13]
  TGI: > 100 µM
[14]
  TGI: > 100 µM
[15]
  TGI: > 100 µM
[16]
  TGI: > 100 µM
[17]
  TGI: > 100 µM
[18]
  TGI: > 100 µM
[19]
  TGI: > 100 µM
[20]
  TGI: > 100 µM
[21]
  TGI: > 100 µM
[22]
  TGI: > 100 µM
[23]
  TGI: > 100 µM
[24]
  TGI: > 100 µM
[25]
  TGI: > 100 µM
[26]
  TGI: > 100 µM
[27]
  TGI: > 100 µM
[28]
  TGI: > 100 µM
[29]
  TGI: > 100 µM
[30]
  TGI: > 100 µM
[31]
  TGI: > 100 µM
[32]
  TGI: > 100 µM
[33]
  TGI: > 100 µM
[34]
  TGI: > 100 µM
[35]
  TGI: > 100 µM
[36]
  TGI: > 100 µM
[58]
  TGI: > 100 µM
[37]
  TGI: > 100 µM
[39]
  TGI: > 100 µM
[40]
  TGI: > 100 µM
[41]
  TGI: > 100 µM
[42]
  TGI: > 100 µM
[43]
  TGI: > 100 µM
[44]
  TGI: > 100 µM
[45]
  TGI: > 100 µM
[46]
  TGI: > 100 µM
[47]
  TGI: > 100 µM
[48]
  TGI: > 100 µM
[49]
  TGI: > 100 µM
[50]
  TGI: > 100 µM
[51]
  TGI: > 100 µM
[52]
  TGI: > 100 µM
[53]
  TGI: > 100 µM
[54]
  TGI: > 100 µM
[55]
  TGI: > 100 µM
[56]
  TGI: > 100 µM
[57]
  TGI: > 100 µM

## O=c1nc2[nH]nc(-c3ccccc3)c2n[nH]1
[59]
  TGI: > 100 µM
[1]
  TGI: 52 µM
[2]
  TGI: > 100 µM
[3]
  TGI: > 100 µM
[4]
  TGI: > 100 µM
[6]
  TGI: > 100 µM
[60]
  TGI: > 100 µM
[8]
  TGI: > 100 µM
[9]
  TGI: > 100 µM
[10]
  TGI: > 100 µM
[12]
  TGI: > 100 µM
[13]
  TGI: > 100 µM
[61]
  TGI: > 100 µM
[14]
  TGI: > 100 µM
[15]
  TGI: > 100 µM
[16]
  TGI: > 100 µM
[17]
  TGI: > 100 µM
[18]
  TGI: > 100 µM
[19]
  TGI: > 100 µM
[20]
  TGI: > 100 µM
[62]
  TGI: > 100 µM
[21]
  TGI: > 100 µM
[22]
  TGI: 36.4 µM
[24]
  TGI: > 100 µM
[25]
  TGI: > 100 µM
[26]
  TGI: > 100 µM
[27]
  TGI: > 100 µM
[28]
  TGI: > 100 µM
[30]
  TGI: > 100 µM
[31]
  TGI: > 100 µM
[32]
  TGI: > 100 µM
[58]
  TGI: > 100 µM
[63]
  TGI: > 100 µM
[37]
  TGI: > 100 µM
[64]
  TGI: > 100 µM
[38]
  TGI: > 100 µM
[39]
  TGI: > 100 µM
[40]
  TGI: > 100 µM
[41]
  TGI: > 100 µM
[65]
  TGI: > 100 µM
[44]
  TGI: > 100 µM
[45]
  TGI: > 100 µM
[46]
  TGI: > 100 µM
[49]
  TGI: > 100 µM
[50]
  TGI: > 100 µM
[52]
  TGI: > 100 µM
[54]
  TGI: > 100 µM
[55]
  TGI: > 100 µM
[56]
  TGI: > 100 µM
[57]
  TGI: > 100 µM
